In ChEMBL document CHEMBL1158208, “Raocyclamides A and B, Novel Cyclic Hexapeptides Isolated from the Cyanobacterium Oscillatoria raoi” (J Nat Prod, 1996):

Tests used:
[1] = Inhibition of Paracentrotus lividus embryo division
[2] = Inhibition of Paracentrotus lividus embryo division at 250 ug/mL

ED100 [1] [µg/mL]	Activity [2]	Structure (SMILES)
30	–	CC[C@H](C)[C@H]1NC(=O)c2coc(n2)[C@H](C)NC(=O)[C@H]2COC(=N2)[C@@H](Cc2ccccc2)NC(=O)c2csc1n2 [RAOCYCLAMIDE A]
–	Not Active	CC[C@H](C)[C@H]1NC(=O)c2coc(n2)[C@H](C)NC(=O)[C@@H](CO)NC(=O)[C@@H](Cc2ccccc2)NC(=O)c2csc1n2 [RAOCYCLAMIDE B]
